Here are results for 4 compounds from EP1066315B1 (University of Dundee, priority 1998, dated 2008).

Each structure is given as a SMILES string. Residues, ends and D or L forms follow the SMILES beside them. *: point of attachment. Fmoc = O=C(OCC1c2ccccc2-c2ccccc21)*; Cbz = O=C(OCc1ccccc1)*; CHN2 = [N-]=[N+]=C*

The subject of experiment [1] is purified AEP (legumain from pig kidney). Nature of the experiment: Digestion of TTCF with purified AEP in the presence of tetrapeptides. Type of experiment: biochemical. Particulars: 0.2 mg/ml peptide; Fig 3a. The method, then: The invention will now be described by reference to the following Examples and Figures wherein • Figure 1: Processing of TTCF by a leupeptin-insensitive cysteine endopeptidase activity. (a) TTCF was digested in vitro in the presence of disrupted lysosomes (1-2 µg) in the presence or absence of iodoacetamide (1 mM), leupeptin, E64 or pepstatin (each at 0.1 mg/ml). Digestions were in 0.1 M NH4 acetate at pH 4.5 or Na2HPO4, pH 6.0 or 7.0. After 4 hours at 37°C, the reactions were separated by Tris-tricine SDS-PAGE and stained with Coomassie Blue. (b) Cleavage sites: TTCF digestion products were separated by SDS PAGE and electrophoretically transferred to nitrocellulose membrane. Individual fragments numbered 1-6 were subjected to 5 cycles of Edman degradation. N-terminal sequence obtained is shown in bold following upstream residues from TTCF (tetanus toxin numbering). The N-terminal sequence of His-tagged TTCF was obtained for fragments 1 and 3. (c) Residues Asn 1184 and Glu 1184 in TTCF were mutated to alanine (see Methods) and digestions performed as before. The mutation abolishes cleavage at the mutated site but not at the first site (doublet at 47 kD). In this experiment cleavage of the third site was minimal. • Figure 2: TTCF is processed by an asparaginyl endopeptidase. (a) Chromatography of the TTCF processing activity on Mono-S resin. Fractions eluted by NaCl gradient were incubated with the substrates Z-Ala-Ala-Asn-NHMec or Z-Phe-Arg-NHMec in the presence or absence of E64 (trans-epoxysuccinyl-L-leucylamido-(4-guanidino)butane). […] (b) Fractions as above were incubated with 10 µg TTCF in the presence or absence of E64 for 4 hours at 37°C prior to SDS-PAGE analysis. (c) Each fraction was analysed by SDS-PAGE and Western blotting. Electrophoretically transferred material was probed with an affinity purified antiserum raised against the peptide KGIGSGKVLKSGPQC from human legumain^1. • Figure 3: Peptide inhibitors of AEP block asparaginyl endopeptidase activity and TTCF processing in vitro and in vivo. […] Release of 7-amino-4-methyl coumarin was measured after 10, 20 or 30 minutes. […] At different times the cells were washed, fixed in 0.05 % glutaraldehyde and antigen presentation measured using proliferation of different autologous TTCF-specific T cell clones. c, AEP pre-processing of TTCF speeds antigen presentation. […] Presentation was measured after 60 minutes of antigen pulsing using EBV B cells.
We decided to test the possibility that high concentrations of asparagine containing peptides might act as competitive inhibitors. […] To establish that inhibition of AEP was specific, we measured the hydrolysis of different synthetic peptide substrates in the presence and absence of these tetrapeptides.

Experiment [2] deals with T1, disrupted lysosomes isolated from the human B cell line EDR (TTCF processing activity) (Homo sapiens, UniProt Q99538).
T1 construct: disrupted lysosomes isolated from the human B cell line EDR; endogenous in cells; host or cells: human B cell line EDR, Percoll-gradient lysosomal fraction, disrupted
T1 sequence (Q99538 26-323 limits assumed): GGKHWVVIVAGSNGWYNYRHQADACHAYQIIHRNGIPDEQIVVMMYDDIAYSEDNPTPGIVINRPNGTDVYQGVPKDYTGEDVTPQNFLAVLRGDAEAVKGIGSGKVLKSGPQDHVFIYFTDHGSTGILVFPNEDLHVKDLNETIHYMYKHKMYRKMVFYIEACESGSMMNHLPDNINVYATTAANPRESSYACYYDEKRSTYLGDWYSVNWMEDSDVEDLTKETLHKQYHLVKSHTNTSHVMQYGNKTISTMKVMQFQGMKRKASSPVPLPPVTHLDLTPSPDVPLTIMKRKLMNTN
Nature of the experiment: Digestion of TTCF by disrupted B cell lysosomes, SDS-PAGE readout. It is filed as biochemical. As to conditions: data not shown; for effect on lysosomal TTCF digestion activity: concentration not given. The method, then:
The invention will now be described by reference to the following Examples and Figures wherein • Figure 1: Processing of TTCF by a leupeptin-insensitive cysteine endopeptidase activity. (a) TTCF was digested in vitro in the presence of disrupted lysosomes (1-2 µg) in the presence or absence of iodoacetamide (1 mM), leupeptin, E64 or pepstatin (each at 0.1 mg/ml). Digestions were in 0.1 M NH4 acetate at pH 4.5 or Na2HPO4, pH 6.0 or 7.0. After 4 hours at 37°C, the reactions were separated by Tris-tricine SDS-PAGE and stained with Coomassie Blue. (b) Cleavage sites: TTCF digestion products were separated by SDS PAGE and electrophoretically transferred to nitrocellulose membrane. Individual fragments numbered 1-6 were subjected to 5 cycles of Edman degradation. N-terminal sequence obtained is shown in bold following upstream residues from TTCF (tetanus toxin numbering). The N-terminal sequence of His-tagged TTCF was obtained for fragments 1 and 3. (c) Residues Asn 1184 and Glu 1184 in TTCF were mutated to alanine (see Methods) and digestions performed as before. The mutation abolishes cleavage at the mutated site but not at the first site (doublet at 47 kD). In this experiment cleavage of the third site was minimal. • Figure 2: TTCF is processed by an asparaginyl endopeptidase. (a) Chromatography of the TTCF processing activity on Mono-S resin. Fractions eluted by NaCl gradient were incubated with the substrates Z-Ala-Ala-Asn-NHMec or Z-Phe-Arg-NHMec in the presence or absence of E64 (trans-epoxysuccinyl-L-leucylamido-(4-guanidino)butane). […] (b) Fractions as above were incubated with 10 µg TTCF in the presence or absence of E64 for 4 hours at 37°C prior to SDS-PAGE analysis. (c) Each fraction was analysed by SDS-PAGE and Western blotting. Electrophoretically transferred material was probed with an affinity purified antiserum raised against the peptide KGIGSGKVLKSGPQC from human legumain^1. • Figure 3: Peptide inhibitors of AEP block asparaginyl endopeptidase activity and TTCF processing in vitro and in vivo. (a) TTCF was digested with purified AEP (legumain from pig kidney) in the presence or absence of 0.2 mg/ml of the peptides indicated. […] (b) Purified AEP or a crude lysosomal protease mixture were incubated with Z-Ala-Ala-Asn-NHMec, Z-Phe-Arg-NHMec (cathepsins L&B) or Z-Val-Val-Ala NHMec (cathepsin S) in the presence of increasing concentrations of AENK or AEQK. Release of 7-amino-4-methyl coumarin was measured after 10, 20 or 30 minutes. […] At different times the cells were washed, fixed in 0.05 % glutaraldehyde and co-cultured with autologous TTCF specific T cell clones. […] Proteins obtained from commercial sources, as described in the literature or custom peptides were digested with purified pig kidney legumain at pH 5.5 in the presence of 1 mM DTT. […] When present peptide was maintained during antigen pulsing at 1 mg/ml (a) or 2 mg/ml (b). At different times the cells were washed, fixed in 0.05 % glutaraldehyde and antigen presentation measured using proliferation of different autologous TTCF-specific T cell clones. c, AEP pre-processing of TTCF speeds antigen presentation. […] Presentation was measured after 60 minutes of antigen pulsing using EBV B cells.
[…]. […] Nor could we reproduce the lysosomal TTCF digestion pattern or indeed generate any of these fragments using purified cathepsins L, S, B, D or E , all of which have been implicated in the class II MHC antigen processing pathway (reviewed in refs 5 & 6).
TTCF processing activity. Lysosomal fractions from the human B cell line EDR were prepared on 27 % Percoll density gradients as previously described^8 using ^125I-labelled transferrin (internalised for 30 minutes at 37°C) and β-hexosaminidase to identify endosomal/plasma membrane and lysosomal fractions respectively. The peak of lysosomes was collected by centrifugation at 40,000 g for 1 hour, removed from the underlying Percoll pellet, collected again at 50,000 g for 1 hour and stored frozen. […]

As to `NCCCC[C@H](NC(=O)OCC1c2ccccc2-c2ccccc21)C(=O)N[C@@H](CCC(N)=O)C(=O)N[C@@H](CCC(N)=O)C(=O)N[C@@H](CCC(=O)O)C(N)=O` [KQQE] (Fmoc-KQQE-NH2), the “inhibition of processing of TTCF by AEP” value in experiment [1] was “did not inhibit”. For the compound `CC(C)C[C@H](NC(=O)N1CCOCC1)C(=O)N[C@H](/C=C/S(=O)(=O)c1ccccc1)CCc1ccccc1` [LHVS], the “effect on lysosomal TTCF digestion activity” value in experiment [2] is reported as “without effect”. On the same count and under the same terms, the value for `CCN1C(=O)C=CC1=O` [N-ethyl maleimide] was “sensitive”. Regarding `[N-]=[N+]=CC(=O)[C@H](Cc1ccccc1)NC(=O)[C@H](Cc1ccccc1)NC(=O)OCc1ccccc1` [Z-Phe-Phe-CHN2] (Cbz-Phe-Phe-CHN2), in experiment [2] (high concentrations), the “sensitivity of lysosomal TTCF digestion activity to inhibitor” value is “sensitive”.
